Source: the NIST ThermoML archive (doi:10.1021/je300345m)
± gives the expanded uncertainty stated by the source.

Assay: xn = mol fraction of the nth substance listed
Details: Liquid, Vibrating tube method

OCCNCCO [diethanolamine] + O
mass density [kg/m3]
Details | x1 = 0.0684 | x1 = 0.1025 | x1 = 0.1463 | x1 = 0.2045 | x1 = 0.2856 | x1 = 0.4067 | x1 = 0.6066 | x1 = 1
298.15 K, 100 kPa | 1034 ± 3.5 | 1047.2 ± 3.5 | 1059.5 ± 3.5 | 1071.4 ± 3.5 | 1081 ± 3.5 | 1088 ± 3.5 | 1092.2 ± 3.5 | 1093.6 ± 3.6
303.15 K, 100 kPa | 1031.8 ± 3.5 | 1044.8 ± 3.5 | 1056.9 ± 3.5 | 1068.5 ± 3.5 | 1077.9 ± 3.5 | 1085 ± 3.5 | 1088.9 ± 3.5 | 1090.4 ± 3.6
308.15 K, 100 kPa | 1029.7 ± 3.5 | 1042.4 ± 3.5 | 1054.2 ± 3.5 | 1065.6 ± 3.5 | 1074.9 ± 3.5 | 1081.8 ± 3.5 | 1085.8 ± 3.5 | 1087.1 ± 3.6
313.15 K, 100 kPa | 1027.2 ± 3.5 | 1039.6 ± 3.5 | 1051.3 ± 3.5 | 1062.6 ± 3.5 | 1071.7 ± 3.5 | 1078.7 ± 3.5 | 1082.7 ± 3.5 | 1083.8 ± 3.6
318.15 K, 100 kPa | 1024.9 ± 3.5 | 1037 ± 3.5 | 1048.4 ± 3.5 | 1059.5 ± 3.5 | 1068.6 ± 3.5 | 1075.5 ± 3.5 | 1079.5 ± 3.5 | 1080.6 ± 3.6
323.15 K, 100 kPa | 1022.2 ± 3.5 | 1034.2 ± 3.5 | 1045.4 ± 3.5 | 1056.6 ± 3.5 | 1065.3 ± 3.5 | 1072.2 ± 3.5 | 1076.2 ± 3.5 | 1077.4 ± 3.6
328.15 K, 100 kPa | 1019.5 ± 3.5 | 1031.4 ± 3.5 | 1042.4 ± 3.5 | 1053.2 ± 3.5 | 1062.1 ± 3.5 | 1068.9 ± 3.5 | 1073 ± 3.5 | 1074.1 ± 3.6
333.15 K, 100 kPa | 1016.6 ± 3.5 | 1028.3 ± 3.5 | 1039.2 ± 3.5 | 1049.9 ± 3.5 | 1058.8 ± 3.5 | 1065.6 ± 3.5 | 1069.6 ± 3.5 | 1070.8 ± 3.6
338.15 K, 100 kPa | 1013.8 ± 3.5 | 1025.2 ± 3.5 | 1036 ± 3.5 | 1046.5 ± 3.5 | 1055.3 ± 3.5 | 1062.2 ± 3.5 | 1066.3 ± 3.5 | 1067.4 ± 3.6
343.15 K, 100 kPa | 1010.6 ± 3.5 | 1022 ± 3.5 | 1032.6 ± 3.5 | 1043.1 ± 3.5 | 1051.8 ± 3.5 | 1058.8 ± 3.5 | 1062.9 ± 3.5 | 1064 ± 3.6
348.15 K, 100 kPa | 1007.5 ± 3.5 | 1018.8 ± 3.5 | 1029.3 ± 3.5 | 1039.7 ± 3.5 | 1048.3 ± 3.5 | 1055.3 ± 3.5 | 1059.4 ± 3.5 | 1060.6 ± 3.6
353.15 K, 100 kPa | 1004.2 ± 3.5 | 1015.3 ± 3.5 | 1025.8 ± 3.5 | 1036 ± 3.5 | 1044.8 ± 3.5 | 1051.7 ± 3.5 | 1055.9 ± 3.5 | 1057.2 ± 3.6
358.15 K, 100 kPa | 1000.8 ± 3.5 | 1011.9 ± 3.5 | 1022.3 ± 3.5 | 1032.5 ± 3.5 | 1041.1 ± 3.5 | 1048 ± 3.5 | 1052.4 ± 3.5 | 1053.7 ± 3.6
363.15 K, 100 kPa | 997.3 ± 3.5 | 1008.3 ± 3.5 | 1018.6 ± 3.5 | 1028.7 ± 3.5 | 1037.2 ± 3.5 | 1044.4 ± 3.5 | 1048.8 ± 3.5 | 1050.1 ± 3.6
373.15 K, 700 kPa | 990.2 ± 3.5 | 1000.9 ± 3.5 | 1011.5 ± 3.5 | 1021.2 ± 3.5 | 1029.9 ± 3.5 | 1037.2 ± 3.5 | 1041.8 ± 3.5 | 1043.3 ± 3.6
383.15 K, 700 kPa | 982.3 ± 3.5 | 992.9 ± 3.5 | 1003.3 ± 3.5 | 1012.9 ± 3.5 | 1021.7 ± 3.5 | 1028.9 ± 3.5 | 1033.8 ± 3.5 | 1035.5 ± 3.6
393.15 K, 700 kPa | 974.2 ± 3.5 | 984.7 ± 3.5 | 995.1 ± 3.5 | 1004.7 ± 3.5 | 1013.5 ± 3.5 | 1020.9 ± 3.5 | 1026 ± 3.5 | 1028.1 ± 3.6
403.15 K, 700 kPa | 965.8 ± 3.5 | 976.3 ± 3.5 | 986.7 ± 3.5 | 996.2 ± 3.5 | 1005.1 ± 3.5 | 1012.8 ± 3.5 | 1018.2 ± 3.5 | 1020.5 ± 3.6
413.15 K, 700 kPa | 957.1 ± 3.5 | 967.5 ± 3.5 | 977.9 ± 3.5 | 987.5 ± 3.5 | 996.5 ± 3.5 | 1004.5 ± 3.5 | 1010.2 ± 3.5 | 1012.9 ± 3.6
423.15 K, 700 kPa | 947.9 ± 3.5 | 958.1 ± 3.5 | 969 ± 3.5 | 978.2 ± 3.5 | 987.2 ± 3.5 | 995.4 ± 3.5 | 1001.7 ± 3.5 | 1004.8 ± 3.6
